{
  "source": "patent US20140161897A1",
  "about": "“METHOD FOR TREATING CANCERS, SUCH AS MYELOMA AND BREAST CANCER, WITH A COMBINATION OF TBL-12 AND VELCADE” (priority 2012, published 2014)",
  "test_system": "human myeloma cells (U266, MM1, KMS1, and APR1)",
  "assay": "MTT cell survival of IL-6 or TNFα stimulated myeloma cells",
  "format": "cell-based",
  "conditions": "U-266, with constant TBL-12 100 ug/ml, read-out: IC50 for Velcade, in combination with the TBL-12",
  "description": "Different human myeloma cells (U266, MM1, KMS1, and APR1), which are commercially available were cultured in standard 96 well plates using standard methods to exponential growth face. The cells were stimulated by either 1L-6 (5 ng/ml), or TNFα (5 ng/ml).\nThe cells were then contacted with a combination of a constant concentration of TBL-12 (100 ug/ml), either by itself, or with various concentration of Velcade (2.5, 5, 10, and 15 ng). Cells which received neither TBL-12 nor Velcade were used as a control. Cell survival was measured, using an MTT assay, at 24, 48, and 72 hours.",
  "data": [
    {"smiles": "CC(C)C[C@H](NC(=O)[C@H](Cc1ccccc1)NC(=O)c1cnccn1)B(O)O", "note": "[Velcade, Bortezomib]", "values": [
      {"measurement": "IC50", "value": "~5", "unit": "ng/mL"}
    ]}
  ]
}
